{"source": "paper PMC3667675", "about": "(ChemMedChem, 2011)", "key": {"KOR [1]": {"test_system": "KOR", "experiment": "Radioligand binding assay, cloned KOR in CHO cell membranes, [3H]diprenorphine", "conditions": "read-out: Ki (nM ± SEM) KOR, mean ± SEM"}, "opioid receptors": {"test_system": "opioid receptors", "assay_type": "in vivo, C57Bl/6J mice"}, "MOR [2]": {"biological_target": "MOR", "assay_type": "binding", "conditions": "read-out: Ki (nM ± SEM) MOR; CHO membranes, [3H]DAMGO, mean ± SEM"}, "KOR [3]": {"biological_target": "KOR (Mus musculus, UniProt P33534)", "sequence (P33534 whole entry)": "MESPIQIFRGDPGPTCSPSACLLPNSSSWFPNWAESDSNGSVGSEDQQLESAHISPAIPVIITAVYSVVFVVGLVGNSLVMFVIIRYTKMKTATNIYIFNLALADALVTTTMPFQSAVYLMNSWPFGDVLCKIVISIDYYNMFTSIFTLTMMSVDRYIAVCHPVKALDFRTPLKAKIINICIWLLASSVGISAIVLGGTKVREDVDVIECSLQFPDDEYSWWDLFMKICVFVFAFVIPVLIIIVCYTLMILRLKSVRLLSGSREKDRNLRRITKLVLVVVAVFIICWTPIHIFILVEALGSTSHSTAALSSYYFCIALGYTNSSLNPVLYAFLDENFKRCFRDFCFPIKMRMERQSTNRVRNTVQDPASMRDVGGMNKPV", "assay_type": "in vivo, C57Bl/6J mice", "conditions": "U50,488 10 mg/kg i.p.; 3 h pretreatment"}, "C57Bl/6J mice": {"test_system": "C57Bl/6J mice", "assay_type": "in vivo"}, "DOR": {"test_system": "DOR", "experiment": "Radioligand binding assay, cloned DOR in CHO cell membranes, [3H]DPDPE", "conditions": "read-out: Ki (nM ± SEM) DOR, mean ± SEM"}, "MOR [4]": {"biological_target": "MOR (Rattus norvegicus, UniProt P33535)", "sequence (P33535 whole entry)": "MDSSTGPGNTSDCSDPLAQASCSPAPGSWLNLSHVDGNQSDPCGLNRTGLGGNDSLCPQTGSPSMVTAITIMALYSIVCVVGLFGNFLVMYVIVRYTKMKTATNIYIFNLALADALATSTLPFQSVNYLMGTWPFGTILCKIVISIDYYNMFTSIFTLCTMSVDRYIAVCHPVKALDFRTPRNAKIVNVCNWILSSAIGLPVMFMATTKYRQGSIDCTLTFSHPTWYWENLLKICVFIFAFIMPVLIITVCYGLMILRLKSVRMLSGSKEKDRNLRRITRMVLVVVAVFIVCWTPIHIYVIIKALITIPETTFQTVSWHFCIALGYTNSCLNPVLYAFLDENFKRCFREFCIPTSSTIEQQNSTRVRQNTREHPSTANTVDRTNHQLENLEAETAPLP", "experiment": "biochemical"}, "KOR [5]": {"test_system": "KOR", "experiment": "Ligand-stimulated [35S]GTPγS binding assay, KOR expressing CHO cell membranes", "assay_type": "biochemical", "conditions": "ratio of KB values"}}, "note": "Square brackets hold non-standard residues; d marks the D form. Peptide text beside a SMILES is read from it."}
{"smiles": "C[C@@H]1NC(=O)[C@H](Cc2c[nH]c3ccccc23)NC(=O)[C@H](Cc2ccccc2)NC(=O)[C@H]2CCCN2C1=O", "note": "[Peptide 2, cyclo[Ala-DPro-Phe-Trp]] (cyclo(A[dP]FW))", "values": [{"measurement": "Ki", "setting": "KOR [1]", "result": "8.03 ± 1.67", "unit": "nM"}, {"measurement": "Effect of naloxone pretreatment on peptide antinociception", "setting": "opioid receptors; naloxone 15 nmol i.c.v., 25 min prior, peptides 2 (3 nmol), 3 (10 nmol), 4 (0.3 nmol), 5 (30 nmol) i.c.v.", "result": "significantly antagonized"}, {"measurement": "Reduction of antinociceptive activity by nor-BNI pretreatment", "setting": "opioid receptors; nor-BNI 10 mg/kg i.p., did not reach statistical significance", "result": "> 30", "unit": "%"}, {"measurement": "Ki", "setting": "MOR [2]", "result": "32.1 ± 3.9", "unit": "nM"}, {"measurement": "KOR antagonist potency in vivo compared with parent peptide 1", "setting": "KOR [3]", "result": "somewhat more potent"}, {"measurement": "Time of peak antinociceptive response", "setting": "C57Bl/6J mice; after i.c.v. administration", "result": 30, "unit": "min"}, {"measurement": "ED50 (and 95% confidence interval), antinociception", "setting": "C57Bl/6J mice; i.c.v., at peak response, C57Bl/6J mice", "result": "1.49 (0.39-7.41) nmol"}, {"measurement": "Ki", "setting": "DOR", "result": "8680 ± 1270", "unit": "nM"}, {"measurement": "Kb", "setting": "MOR [4]", "result": "7.3 ± 1.6", "unit": "nM"}, {"measurement": "KOR antagonist potency relative to parent peptide 1 (more potent)", "setting": "KOR [5]", "result": 25, "unit": "fold"}]}
